Reference: publication PMC3692424, “A New Type of Na^+-Driven ATP Synthase Membrane Rotor with a Two-Carboxylate Ion-Coupling Motif” (PLoS Biology, 2013)

Experiments:
[1] = target: T1, F. nucleatum F1Fo-ATP synthase (purified; c-ring site of DCCD) (Fusobacterium nucleatum, UniProt Q8RGD7); assay: inhibition of ATP hydrolysis, ATP-regenerating assay; type: biochemical; settings: covalent (Glu65 of subunit c); 20 min preincubation at 25 °C, 50 mM MOPS, 2 mM MgCl2, pH 7.5; no added Na+
T1 construct: gene atpE; same native holoenzyme as P1; entry split because DCCD modifies Glu65 of subunit c; with ATP synthase subunit alpha; ATP synthase subunit beta; ATP synthase gamma chain; ATP synthase subunit delta; ATP synthase epsilon chain; ATP synthase subunit a; ATP synthase subunit b

[2] = target: T2, F. nucleatum c11 ring (isolated c-ring) (Fusobacterium nucleatum, UniProt Q8RGD7); assay: fluorescence increase on labelling; SDS-PAGE under UV light; type: binding; settings: covalent (Glu65); 100 µM NCD-4, MES pH 5.7, 1.5% n-octyl-β-D-glycoside, no Na+
T2 construct: gene atpE; isolated c11 ring from hybrid ATP synthase (I. tartaricus F1-ab2) expressed in E. coli DK8; detergent-solubilized
T2 sequence (Q8RGD7 whole entry): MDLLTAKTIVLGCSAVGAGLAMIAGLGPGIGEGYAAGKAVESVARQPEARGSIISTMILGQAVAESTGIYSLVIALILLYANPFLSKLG

Row | SMILES | inhibition of ATP hydrolysis, ATP-regenerating assay [1] | fluorescence increase on labelling; SDS-PAGE under UV light [2]
1 | C(=NC1CCCCC1)=NC1CCCCC1 [DCCD, N,N′-dicyclohexylcarbodiimide] | The ATPase activity of the enzyme was inhibited by DCCD in a concentration-dependent manner | 
2 | CN(C)c1ccc(N=C=NC2CCCCC2)c2ccccc12 [NCD-4, N-cyclohexyl-N′-(4-(dimethylamino)-α-naphthyl)-carbodiimide] |  | NCD-4 modifies Glu65 in the isolated c-ring
